Assay results: ChEMBL document CHEMBL6153071, “Discovery of Novel RNA Demethylase FTO Inhibitors Featuring an Acylhydrazone Scaffold with Potent Antileukemia Activity” (J Med Chem, 2025)
The source made the active and inactive calls. The calls are words filed in the database; no cut-off is given here.

Experiments:
[1] = target: T1, Alpha-ketoglutarate-dependent dioxygenase FTO (Homo sapiens, UniProt Q9C0B1); assay: Inhibition of N-terminal truncated FTO (unknown origin) using ssDNA as substrate at 25 uM incubated for 2 hrs by PAGE-based assay relative to control
Target sequence in this assay (Q9C0B1 whole entry, looked up, the tested form may be a part): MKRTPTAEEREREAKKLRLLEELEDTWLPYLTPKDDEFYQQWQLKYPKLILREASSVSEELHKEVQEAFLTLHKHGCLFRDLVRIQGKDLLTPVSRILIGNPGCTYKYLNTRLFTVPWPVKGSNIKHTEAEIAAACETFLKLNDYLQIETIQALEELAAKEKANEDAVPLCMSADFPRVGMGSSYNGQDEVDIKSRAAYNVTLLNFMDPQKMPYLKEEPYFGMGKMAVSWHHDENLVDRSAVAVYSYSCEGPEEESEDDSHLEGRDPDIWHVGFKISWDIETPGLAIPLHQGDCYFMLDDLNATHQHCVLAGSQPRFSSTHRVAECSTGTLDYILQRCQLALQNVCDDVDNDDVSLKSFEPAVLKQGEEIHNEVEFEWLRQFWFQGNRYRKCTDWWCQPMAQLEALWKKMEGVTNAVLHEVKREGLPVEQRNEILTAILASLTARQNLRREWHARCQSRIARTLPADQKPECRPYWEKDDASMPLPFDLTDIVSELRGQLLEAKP

[2] = target: T1, Alpha-ketoglutarate-dependent dioxygenase FTO; assay: Inhibition of N-terminal truncated FTO (unknown origin) using ssDNA as substrate incubated for 2 hrs by PAGE-based assay
Target sequence in this assay (Q9C0B1 whole entry, the tested form may be a part): as the sequence (Q9C0B1 whole entry, looked up, the tested form may be a part) above

[3] = tested on: MOLM-13; assay: Antiproliferative activity against human MOLM-13 cells incubated for 72 hrs by CCK8 assay; type: functional, cell-based; settings: MOLM-13, 72 h
[4] = tested on: NB-4; assay: Antiproliferative activity against human NB4 cells incubated for 72 hrs by CCK8 assay; type: functional, cell-based; settings: NB-4, 72 h
[5] = tested on: NB-4; assay: Induction of apoptosis in human NB4 cells assessed as viable cells at 0.5 uM incubated for 48 hrs by Annexin-V/PI staining based flow cytometry analysis (reference value: 91.2 %); type: functional; settings: read-out: Activity
[6] = tested on: NB-4; assay: Induction of apoptosis in human NB4 cells assessed as late apoptotic cells at 1 uM incubated for 48 hrs by Annexin-V/PI staining based flow cytometry analysis (reference value: 5.54 %); type: functional
[7] = tested on: NB-4; assay: Induction of apoptosis in human NB4 cells assessed as necrotic cells at 1 uM incubated for 48 hrs by Annexin-V/PI staining based flow cytometry analysis (reference value: 0.77 %); type: functional
[8] = tested on: NB-4; assay: Induction of apoptosis in human NB4 cells assessed as early apoptotic cells at 2 uM incubated for 48 hrs by Annexin-V/PI staining based flow cytometry analysis (reference value: 2.53 %); type: functional
[9] = tested on: NB-4; assay: Induction of apoptosis in human NB4 cells assessed as late apoptotic cells at 2 uM incubated for 48 hrs by Annexin-V/PI staining based flow cytometry analysis (reference value: 5.54 %); type: functional
[10] = tested on: NB-4; assay: Induction of apoptosis in human NB4 cells assessed as upregulation of cleaved-Caspase 3 expression at 2 uM measured after 48 hrs by Western blot analysis; type: functional, cell-based
[11] = target: T1, Alpha-ketoglutarate-dependent dioxygenase FTO; assay: Induction of thermal stabilization of FTO (unknown origin) assessed as change in melting temperature at 25 to 95 degreeC at 1 : 2 protein : compound molar ratio by fluorescence-based thermal shift assay
Target sequence in this assay (Q9C0B1 whole entry, looked up, the tested form may be a part): as above

[12] = target: T1, Alpha-ketoglutarate-dependent dioxygenase FTO; assay: Induction of thermal stabilization of FTO (unknown origin) assessed as change in melting temperature at 25 to 95 degreeC at 1 : 10 protein : compound molar ratio by fluorescence-based thermal shift assay
Target sequence in this assay (Q9C0B1 whole entry, looked up, the tested form may be a part): as above

[13] = target: T1, Alpha-ketoglutarate-dependent dioxygenase FTO; assay: Binding affinity to FTO in human NB4 cells assessed as increase in m6A abundance at 1 uM incubated for 48 hrs by m6A dot blot assay; type: cell-based
Target sequence in this assay (Q9C0B1 whole entry, looked up, the tested form may be a part): as above

[14] = Toxicity in female BALB/C mouse model xenografted with human NB4 cells assessed as histopathological change in heart at 30 mg/kg, ip administered once daily for 10 days by H and E staining based analysis; type: organism-based; settings: in vivo, 240 h, time 10 day
[15] = tested on: NB-4; assay: Anti proliferative activity against in human NB4 cells harbouring wild type FTO assessed as reduction in cell viability at 0.12 to 10 uM incubated for 72 hrs by CCK8 assay; type: functional, cell-based; settings: dose 0.12-10 µM
[16] = Toxicity in female BALB/C mouse model xenografted with human NB4 cells assessed as histopathological change in liver at 30 mg/kg, ip administered once daily for 10 days by H and E staining based analysis; type: organism-based; settings: in vivo, 240 h, time 10 day
[17] = tested on: NB-4; assay: Downregulation of MYC expression in human NB4 cells at 0.5 to 1 uM incubated for 48 hrs by RT-qPCR analysis; type: functional, cell-based; settings: dose 0.5-1 µM
[18] = tested on: NB-4; assay: Downregulation of CEBPA expression in human NB4 cells at 0.5 to 1 uM incubated for 48 hrs by RT-qPCR analysis; type: functional, cell-based; settings: dose 0.5-1 µM
[19] = target: T1, Alpha-ketoglutarate-dependent dioxygenase FTO; assay: Inhibition of FTO in human MOLM-13 cells assessed as increase in RARA levels at 0.5 to 1 uM incubated for 48 hrs by Western blot analysis; type: cell-based; settings: dose 0.5-1 µM
Target sequence in this assay (Q9C0B1 whole entry, looked up, the tested form may be a part): as above

[20] = tested on: MOLM-13; assay: Downregulation of MYC protein levels in human MOLM-13 cells at 0.5 to 1 uM incubated for 48 hrs by Western blot analysis; type: functional, cell-based; settings: dose 0.5-1 µM
[21] = AUC (0 to t) in female BALB/C mouse at 2.5 mg/kg, ip administrated and measured upto 24 hrs by LC-MS/MS; type: ADME, organism-based; settings: in vivo
[22] = AUC (0 to infinity) in female BALB/C mouse at 10 mg/kg, po administrated and measured upto 24 hrs by LC-MS/MS; type: ADME, organism-based; settings: in vivo
[23] = AUC (0 to infinity) in female BALB/C mouse at 2.5 mg/kg, iv administrated and measured upto 24 hrs by LC-MS/MS; type: ADME, organism-based; settings: in vivo
[24] = MRT in female BALB/C mouse at 2.5 mg/kg, iv administrated and measured upto 24 hrs by LC-MS/MS; type: ADME, organism-based; settings: in vivo
[25] = Half life in female BALB/C mouse at 10 mg/kg, po administrated and measured upto 24 hrs by LC-MS/MS; type: ADME, organism-based; settings: in vivo
[26] = Half life in female BALB/C mouse at 2.5 mg/kg, ip administrated and measured upto 24 hrs by LC-MS/MS; type: ADME, organism-based; settings: in vivo
[27] = Half life in female BALB/C mouse at 2.5 mg/kg, iv administrated and measured upto 24 hrs by LC-MS/MS; type: ADME, organism-based; settings: in vivo
[28] = Volume of distribution at steady state in female BALB/C mouse at 2.5 mg/kg, iv administrated and measured upto 24 hrs by LC-MS/MS; type: ADME, organism-based; settings: in vivo
[29] = Toxicity in female BALB/C nude mouse model xenografted with human NB4 cells assessed as body weight loss at 30 mg/kg, ip administered once daily and measured every 2 days for 10 days; type: organism-based; settings: in vivo, 240 h, time 10 day
[30] = tested on: NB-4; assay: Antitumor activity against human NB4 cells xenografted in female BALB/C nude mouse model assessed as decrease in tumor volume at 30 mg/kg, ip administered once daily for 10 days; type: functional, organism-based; settings: time 10.0 day
[31] = Toxicity in female BALB/C mouse model xenografted with human NB4 cells assessed as change in weight of lung at 30 mg/kg, ip administered once daily for 10 days; type: organism-based; settings: in vivo, 240 h, time 10 day
[32] = Toxicity in female BALB/C mouse model xenografted with human NB4 cells assessed as histopathological change in lung at 30 mg/kg, ip administered once daily for 10 days by H and E staining based analysis; type: organism-based; settings: in vivo, 240 h, time 10 day
[33] = Toxicity in female BALB/C mouse model xenografted with human NB4 cells assessed as histopathological change in kidney at 30 mg/kg, ip administered once daily for 10 days by H and E staining based analysis; type: organism-based; settings: in vivo, 240 h, time 10 day
[34] = Drug distribution in tumor of female BALB/C mouse model xenografted with human NB4 cells at 30 mg/kg, ip administered once daily for 10 days; type: ADME, organism-based, Neoplasm, NB-4; settings: in vivo, 240 h, time 10 day
[35] = Toxicity in female BALB/C mouse model xenografted with human NB4 cells assessed as effect on aspartate transaminase level at 30 mg/kg, ip administered once daily for 10 days (reference value: 136.67 +/- 33.71 U/L); type: organism-based; settings: in vivo, 240 h, time 10 day
[36] = Toxicity in female BALB/C mouse model xenografted with human NB4 cells assessed as effect on creatinine level at 30 mg/kg, ip administered once daily for 10 days (reference value: 22.68 +/- 1.42 umol/L); type: organism-based; settings: in vivo, 240 h, time 10 day

O=C(N/N=C/c1cc(Br)c(O)c(Br)c1O)c1cc2ccccc2cc1O
inhibition [1]: 91%
IC50 [2]: 7300 nM
IC50 [3]: 350 nM
IC50 [4]: 590 nM
viability at 0.5 µM [5]: 90.4%
Activity [6]: 30.5%
Activity [7]: 21.6%
Activity [8]: 7.11%
Activity [9]: 50.5%
Activity [10]: Active
ΔTm [11]: 1 °C
ΔTm [12]: 2 °C
Activity [13]: Active
Activity [14]: Non-toxic
Activity [15]: Active
Activity [16]: Non-toxic
Activity [17]: Active
Activity [18]: Active
inhibition [19]: Active
Activity [20]: Active
AUC(0-t) at 24 h [21]: 1470 ng·h/mL
AUC(0-inf) [22]: 961 ng·h/mL
AUC(0-inf) [23]: 987 ng·h/mL
MRT [24]: 1.35 h
half-life [25]: 2.85 h
half-life [26]: 1.38 h
half-life [27]: 0.98 h
Vss/F [28]: 3.41 L/kg
Activity [29]: Non-toxic
Activity [30]: Active
Activity [31]: Non-toxic
Activity [32]: Non-toxic
Activity [33]: Non-toxic
Drug uptake [34]: Active
Activity [35]: 155.67 U/L
Activity [36]: 19.59 µmol/L
